Consider 3 compounds from US6884907B2, “Hydroxamic acids and acyl hydroxamines as naaladase inhibitors” (Guilford Pharmaceuticals Inc., priority 2001, dated 2005).

Test [1] deals with STZ-induced diabetic rats. Nature of the test: Neuropathic pain in STZ model (thermal nociception, Hargreaves apparatus). The format is in vivo, Male Sprague-Dawley rats. The conditions noted are these: 10 mg/kg i.p. daily, treatment started 45 days post-STZ, FIGS. 7A and 7B. As for the experimental part:
Male Sprague-Dawley rats (200-225 g) were rendered diabetic by intravenous administration of streptozotocin (“STZ”, 70 mg/kg in phosphate buffered saline). Diabetic animals were divided into five groups: one group receiving Compound A (10 mg/kg or 1 mg/kg), Compound D (10 mg/kg or 1 mg/kg) or vehicle. Another group of animals (non-STZ treated) served as non-diabetic controls. Drug/vehicle treatment was started in diabetic animals 45 days post-STZ administration. STZ-induced diabetic rats were tested for sensitivity to a heat source as soon as blood glucose levels rose to 320 mg/dl or above (30 days post STZ). The rats were then acclimated to a Hargreaves apparatus and thermal nociception was monitored using an infrared heat source directed into the dorsal surface of the hindpaw, and the time taken for the animal to remove its paw noted to the nearest 0.1 seconds (see Hargreaves et al., supra, for detailed experimental method). The intensity of the beam source was adjusted such that the mean latency for control animals (non-STZ treated) was approximately 10 seconds. Each animal was tested 8 times and the mean difference score (between mean non-diabetic control latency and mean diabetic latency) are graphically presented in FIGS. 7A and 7B.

The test system of a further test is BB/W diabetic rats. Put plainly: Progression of neuropathic pain and nerve conduction deficits in BB/W model. The format is in vivo, Male BB/W rats. The text has this: Male BB/W rats (BRI, Mass) spontaneously develop a cell mediated autoimmune destruction of pancreatic B cells, resulting in onset of insulin-dependent (Type I) diabetes (Guberski 1994). […] This renders them valuable for experimental trials of new compounds for future treatments of this major disorder. In the present study, Compound D and Compound A were examined for their ability to alter the progression of diabetic neuropathy. The rats received daily injection of Compound D or Compound A (10 mg/kg i.p.) or vehicle, starting at the onset of diabetes (hyperglycemia) and up to 6 months thereafter. Another group of non-diabetic rats also receiving vehicle were tested. All animals were continuously monitored for body weight, urine volume, blood sugar and glycated haemoglobin. In the first month of the study, all animals were tested for thermal nociception in a Hargreaves apparatus, weekly. After the first month this was done biweekly and then monthly. The testing consists of directing an infrared heat source onto the dorsal surface of the rat hindpaw and noting the time taken for the animal to remove its paw (see Hargreaves et al., supra, for a description of the experimental method). Each animal was tested 8 times and the mean withdrawal latency noted.
Nerve conduction velocity was also measured every two weeks through the first eight weeks of treatment and every month thereafter through to the six months of treatment (see De Koning et al., Peptides, Vol. 8, No. 3, pp. 415-22 (1987) for a description of the experimental method). […] This was apparent starting at 8 weeks of treatment and persisted to a similar degree through to the six month termination point of the study.

A further test has as its system STZ-diabetic animals. Nature of the test: Diabetic neuropathy in STZ model (nerve conduction velocity). Format: in vivo, rats. The conditions noted are these: 10 mg/kg daily. The protocol: Motor and sensory nerve conduction velocity was also measured in STZ-diabetic animals after 4, 8 and 12 weeks of treatment (see De Koning et al., supra, for a description of the experimental method). Briefly, stimulating needle electrodes were inserted close to the sciatic and tibial nerves with recording electrodes being placed subcutaneously over the distal foot muscles, in anesthetized rats.

The next test concerns transgenic G1H mice. Nature of the test: Onset of ALS in SOD transgenic mice model of FALS. Format: in vivo. The protocol:
The effect of NAALADase inhibitors on the onset of ALS was tested using the superoxide dismutase (“SOD”) transgenic mice model of familial Amyotrophic Lateral Sclerosis (“FALS”), which is detailed in Gurney, M., Annals of Neurology (1996) 39:147-157, and otherwise well known in the art. One month old transgenic G1H mice were treated with daily intraperitoneal injections of a vehicle (50 mM HEPES-buffered saline) or a NAALADase inhibitor (50 mg/kg of Compound A). Clinical symptoms of the mice were monitored daily. The onset of clinical disease was scored by examining each mouse for its shaking of limbs when suspended in the air by its tail, cross spread of spinal reflexes, hindlimb paralysis, body weight and wheel running activity.

Test [2] relates to rats with transected optic nerve. Put plainly: Optic nerve transection (optic nerve fiber counting). The format is in vivo, Brown Norway rats (Rattus norvegicus). The following applies: 2 weeks after transection. The protocol: All experiments complied with the Association for Research in Vision and Ophthalmology Statement for the Use of Animals in Ophthalmic and Vision Research. 82 male Brown Norway rats (Rattus norvegicus), each weighing approximately 250 gm, were treated using procedures approved by the Animal Care Committee of the Johns Hopkins University School of Medicine. The rats were housed with a 12 hour light/12 hour dark cycle and fed ad libitum.
OPTIC NERVE TRANSECTION: The optic nerve was transected unilaterally in 26 rats under intraperitoneal pentobarbital anesthesia. The conjunctiva was opened with scissors and the optic nerve exposed by traction on extraocular muscles. […]
The area of the optic nerve cross-section was measured by outlining its outer border at 10× magnification on an image analysis system (Universal Imaging Corp., Westchester, Pa.) with Synsys digital camera and Metamorph software. Three area measurements were taken and the mean value was determined. […] These were edited to eliminate non-neural objects and the size of each axon internal to the myelin sheath (its minimum diameter) and the density of axons/square mm were calculated for each image and nerve. […] The number of axons counted among the 10 images was an approximately 20% sample of the 80-90,000 axons in normal rat nerves. […]

Test [3] deals with Transgenic HD mice of the N171-82Q strain. Nature of the test: Transgenic mouse model of Huntington's disease: behavioral testing (rotarod, locomotion). The format is in vivo. The protocol: Transgenic HD mice of the […]-[…] strain and non-transgenic littermates were treated with NAALADase inhibitor Compound B (30 mg/kg) or a vehicle from 10 weeks of age. The mice were placed on a rotating rod (“rotarod”). The length of time at which the mouse fell off the rotarod was recorded as a measure of motor coordination. […] The treatment with Compound B had no effect on the rotarod performance of normal non-HD mice. The total distance traveled by the mice was also recorded as a measure of overall locomotion.
On the technique in general: Falling from the rotarod earlier than controls is read as motor impairment.

Test [4] deals with transgenic HD mice (N171-82Q). Nature of the test: Transgenic mouse model of Huntington's disease: survival. Format: in vivo. As for the experimental part:
The effects of Compound B and vehicle on the survival of transgenic HD mice (N171-82Q) were evaluated. Thirteen mice (six male and seven female) were assigned to the Compound B treatment group, and fourteen mice (six male and eight female) were assigned to the vehicle treatment group. Treatment was continued until all the mice died.

Test [5] has as its system TGF-β. Nature of the test: Effect of NAALADase inhibition on TGF-β in in vitro ischemia model. The format is cell-based. The conditions noted are these: ischemic cell cultures. The protocol: A NAALADase inhibitor, Compound C, was added to ischemia cell cultures to determine its effect on TGF-β levels during stroke.
TGF-β neutralizing antibodies were then added to the ischemic cell cultures.

Test [6] concerns TGF-β. Nature of the test: Effect of NAALADase inhibition on TGF-β in in vivo ischemia model (MCAO). The following applies: MCAO rats. From the text: The effect of TGF-β neutralizing antibodies on the neuroprotective effect of Compound C was also studied in rats following MCAO.
Test [7] relates to rats with sciatic nerve ligation. Put plainly: Neuropathic pain in chronic constriction injury (CCI) model. Format: in vivo. The following applies: 50 mg/kg i.p. daily starting 10 days post surgery, versus vehicle, FIG. 8. The protocol: Sciatic nerve ligation, consisting of 4 ligatures tied loosely around the sciatic nerve at 1 mm intervals proximal to the nerve trifurcation, was performed on rats. […] The rats were habituated to a Hargreaves apparatus. An infrared heat source was directed onto the […] surface of each rat's hindpaws and the time taken for the rat to withdraw its paws was noted. The difference in scores between the latency of the response for the paw on the operated side versus the paw on the unoperated control side was determined. The rats received either Compound C (50 mg/kg i.p. daily) or a vehicle starting 10 days post surgery. […] Normal (unoperated) rats had approximately equal latencies for both paws. This effect was significant starting at 11 days of drug treatment and persisted through to the end of the study (for 21 days of daily dosing).

For the compound `O=C(O)CCC(CP(=O)(O)Cc1c(F)c(F)c(F)c(F)c1F)C(=O)O` (stereo not shown) [Compound A, 2-[[(2,3,4,5,6-pentafluorobenzyl)hydroxyphosphinyl]methyl]pentanedioic acid], the “hyperalgesic response (withdrawal latency difference score)” value in test [1] is “completely reversed”. The nerve conduction velocity entry in the test with BB/W diabetic rats (10 mg/kg daily, versus diabetic vehicle controls, from 8 weeks to six months, FIG. 12) is “significantly less severe nerve conduction deficits”. In the test on BB/W diabetic rats (10 mg/kg i.p. daily, versus diabetic vehicle-treated rats, from 4 weeks through six months of treatment, FIG. 11), the withdrawal latency result was “longer withdrawal latencies”. In addition, the “sensory nerve conduction velocity” value with STZ-diabetic animals (after 8 weeks, FIG. 9B) is “significant improvement”. For the same compound, in the test with STZ-diabetic animals (after 12 weeks, FIG. 9A), the “motor nerve conduction velocity” value is “significant improvement”. For the same compound, the “Difference in disease onset (treated versus vehicle)” value with transgenic G1H mice (Study 1, 50 mg/kg daily i.p.) stood at 32; in the test on transgenic G1H mice (Study 2, 50 mg/kg daily i.p.) it was 25. In addition, the “Disease Onset For Compound A Treated Mice” value in the test with transgenic G1H mice (Study 1, 50 mg/kg daily i.p., vehicle 189) was 221 days; with transgenic G1H mice (Study 2, 50 mg/kg daily i.p., vehicle 141) it was 166 days. Moreover, in test [2], the “remaining axons relative to saline-treated rats” value stood at 3 times.

Turning to `O=C(O)CCC(CCCS)C(=O)O` (stereo not shown) [Compound B, 2-(3-sulfanylpropyl)pentanedioic acid], in [2], the “remaining axons relative to saline-treated rats” value was “twice”. In addition, the rotarod performance result in [3] (normal non-HD mice, 30 mg/kg) is listed as “no effect”. Also, in test [3] (transgenic HD mice, 30 mg/kg from 10 weeks of age, versus vehicle, FIG. 31), the “rotarod performance (time on rotarod)” value is recorded as “stayed longer on the rotarod”. Moreover, the median survival time in test [4] (all treated transgenic HD mice, vehicle 158.5 days, p-value=0.07, FIG. 33) stood at 184 days. The survival time entry in [4] (female transgenic HD mice versus vehicle, p-value=0.03, FIG. 35) was “significantly prolonged survival time”.

With `O=C(O)CCC(CP(=O)(O)O)C(=O)O` (stereo not shown) [Compound C, 2-(phosphonomethyl)pentanedioic acid], in the test with TGF-β [5] (FIG. 1), the TGF-β1 concentration entry was “increased concentrations”. In addition, the TGF-β2 concentration entry in the test on TGF-β [5] (FIG. 2) is on record as “increased concentrations”. Also, the “neuroprotective effect in presence of TGF-β neutralizing antibodies” value in the test with TGF-β [5] (FIG. 3) is given as “blocked the neuroprotective effect”; with TGF-β [6] (FIG. 5), “significantly attenuated the neuroprotective effect”. For the same compound, the “neuroprotective effect in presence of FGF antibody” value in the test on TGF-β [5] (FIG. 4) is given as “did not block the neuroprotective effect”. Besides, in the test with TGF-β [6] (during occlusion and reperfusion, microdialysis, FIG. 6), the TGF-β1 levels result was “significant rise”. In addition, the “difference scores between the two paws (withdrawal latency)” value in test [7] is listed as “dramatically normalized”.
